Results: patent US11161830B2, “4-pyridone compound or salt thereof, and pharmaceutical composition and formulation including same” (priority 2017, dated 2021)
Read-outs that look alike come from different tables or passages of the source.

How the values were obtained:
HBV = experiment: Test Example 1-1: anti-HBV assay in HepG2.2.15 cells (test solution 200 μL/well); assay type: cell-based, hepatitis B virus; settings: culture supernatant
Experimental: Using HepG2.2.15 cells (Proc. Natl. Acad. Sci. USA, 84, 1005-1009, 1987) which have an HBV genome introduced into a hepatoblastoma cell line, HepG2, and persistently produce a virus, the anti-HBV activity of the representative compounds was evaluated in the following procedure.
(§1) The following was used as a medium:
DMEM/F-12, GlutaMAX (manufactured by Invitrogen)+5 μg/mL insulin (manufactured by Wako)+1% penicillin/streptomycin (manufactured by Sigma)+10 mmol/L HEPES (manufactured by Sigma)+50 μmol/L hydrocortisone (manufactured by Sigma)+10% FBS
A mixture of a test compound with dimethyl sulfoxide (DMSO) was further added to the medium to obtain a final concentration of DMSO of 0.25% (v/v), and thus, test solutions containing the test compound at various concentrations were prepared. In addition, a test solution obtained by adding DMSO alone to the medium to obtain a final concentration of 0.25% (v/v) was prepared as a control without addition of a drug.
(1) The HepG2.2.15 cells were suspended in the medium to prepare a. HepG2.2.15 cell suspension at 4×10^5 cells/mL. The suspension was seeded in a 96-well microtiter plate (100 μL/well) and the plate was incubated in a 5% CO2 incubator at 37° C. for 2 days.
(2) The culture supernatant was removed and the cells were washed twice with PBS (−) (100 μL/well).
(3) The test solution (200 μL/well) was added to the plate of (2) and the plate was incubated in a 5% CO2 incubator at 37° C. for 4 days.
(4) The culture supernatant was removed, the test solution (200 μL/well) was added again to the plate, and the plate was incubated in a 5% CO2 incubator at 37° C. for 3 days.
(5) The culture supernatant was collected and treated with a mixture of Buffer AL (manufactured by QIAGEN) and Proteinase K (manufactured by Invitrogen). The amount of DNA of HBV (HBV-DNA) in the obtained solution was absolutely quantified by a real-time PCR method. In addition, HBsAg (hepatitis B surface antigen) in the culture supernatant was absolutely quantified by chemiluminescent enzyme immunoassay using Lumipulse (registered trademark) HBsAg-HQ (manufactured by Fujirebio Inc.). The relative viral load (%) of a well with the compound added to a well without the compound added was calculated. An IC50 of the compound was calculated using a FORECAST function (linear regression method) of Microsoft Office Excel 2007 by plotting the logarithm of the concentration against the relative viral load as a real number.
The IC50 of HBV-DNA was defined as a concentration (or a logarithm dilution of the culture supernatant) of the compound, in which the amount of HBV-DNA is reduced by 50% as compared a control without the compound added.
In addition, the IC50 of HBsAg was defined as a concentration (or a logarithm dilution of the culture supernatant) of the compound, in which the amount of HBsAg is reduced by 50% as compared a control without the compound added.

HBV (genotype AeUS) = experiment: Test Example 2-1: anti-HBV assay in PXB-cells (fresh human hepatocytes); assay type: cell-based, hepatitis B virus; settings: Hepatitis B virus, Hepatocyte, PXB-cells infected with HBV genotype AeUS, culture supernatant on day 32 post infection
Experimental: Using fresh human hepatocytes (PXB-cells, manufactured by PhenixBio Co., Ltd.) collected from a PXB mouse (a chimeric mouse with human hepatocytes), the anti-HBV activity of the representative compounds was evaluated in the following procedure.
as §1
DMEM (manufactured by Sigma)+0.25 μg/mL insulin (manufactured by Wako)+1% penicillin/streptomycin. (manufactured by Sigma)+20 mmol/L HEPES (manufactured by Sigma)+15 μg/mL L-proline (manufactured by Sigma)+50 nmol/L dexamethasone (manufactured by Sigma)+5 ng/mL EGF (manufactured by Peprotech)+0.1 mmol/L ascorbic acid 2-phosphate (manufactured by Wako)+10% FBS+2% DMSO
Each of the test compounds) was further added to the medium to prepare a test solution containing each of the test compounds at various concentrations.
(1) PXB-cells seeded at a seeding density of 2.1×10^5 cells/cm^2 in a 96-well microliter plate were incubated in a 5% CO2 incubator at 37° C. until a day on which the cells were infected.
(2) HBV (genotype AeUS) derived from a PXB mouse serum was suspended in the medium containing 4% PEG-8000, and added to the plate of (1) at about 10 copies/cell such that the PXB cells were infected (100 μL/well), and the plate was incubated in a 5% CO2 incubator at 37° C. for 1 day.
(3) The culture supernatant on day 1 post infection was removed and the cells were washed three times with DMEM containing 10% FBS and 1% penicillin/streptomycin. Then, the medium was added to the plate (100 μL/well) and the plate was incubated in a 5% CO2 incubator at 37° C. for 1 day.
(4) The culture supernatant on day 2 post infection was removed and the cells were washed three times with DMEM containing 10% FBS and 1% penicillin/streptomycin. Then, the medium was added to the plate (100 μL/well) and the plate was incubated in a 5% CO2 incubator at 37° C. for 5 days.
(5) The culture supernatant on day 7 post infection was removed, the medium was added to the plate (100 μL/well), and the plate was incubated in a 5% CO2 incubator at 37° C. for 5 days.
(6) The culture supernatant on day 12 post infection was removed, the medium was added to the plate (100 μL/well), and the plate was incubated in a 5% CO2 incubator at 37° C. for 5 days.
(§2) (7) The culture supernatant on day 17 post infection was removed, the test solution was added to the plate (100 μL/well), and the plate was incubated in a 5% CO2 incubator at 37° C. for 5 days. As a control without the compound added, the medium was added to the plate (100 μL/well) and the plate was incubated in a 5% CO2 incubator at 37° C. for 5 days.
as §2, with “(8)” for “(7)”, “22” for “17”
as §2, with “(9)” for “(7)”, “27” for “17”
(10) The culture supernatant on day 32 post infection was collected.
(11) The collected culture supernatant on day 32 post infection was purified with a QIAamp (registered trademark) DNA Blood Mini Kit (manufactured by QIAGEN). The amount of HBV-DNA in the obtained solution was absolutely quantified by a real-time PCR method. In addition, the amount of HBsAg in the culture supernatant was absolutely quantified by chemiluminescent enzyme immunoassay using Lumipulse (registered trademark) HBsAg-HQ (manufactured by Fujirebio Inc.). A relative viral load (%) with respect to a control without the compound added was each calculated. […]

[1] = Hepatitis B virus, read-out: IC50 HBV-DNA
[2] = Hepatitis B virus, read-out: IC50 HBsAg

| SMILES | IC50 (HBV; [1]) | IC50 (HBV; [2]) | also measured |
| --- | --- | --- | --- |
| Cc1nc2ccc(-n3cc(C(=O)O)c(=O)cc3-c3ccc(N(C)C)cc3)cc2s1 [Example 1, 6-(4-(dimethylamino)phenyl)-1-(2-methylbenzo[d]thiazol-6-yl)-4-oxo-1,4-dihydropyridine-3-carboxylic acid] | 0.12 µM | 0.12 µM |  |
| COc1nc2ccc(-n3cc(C(=O)O)c(=O)cc3-c3ccc(N4CCCC4)cc3)cc2s1 [Example 3-5, 1-(2-methoxybenzo[d]thiazol-6-yl)-4-oxo-6-(4-(pyrrolidin-1-yl)phenyl)-1,4-dihydropyridine-3-carboxylic acid] | 0.004 µM | 0.008 µM |  |
| COCCN(CCOC)c1nc2ccc(-n3cc(C(=O)O)c(=O)cc3-c3ccc(N4CCCC4)cc3)cc2s1 [Example 3-6, 1-(2-(bis(2-methoxyethyl)amino)benzo[d]thiazol-6-yl)-4-oxo-6-(4-(pyrrolidin-1-yl)phenyl)-1,4-dihydropyridine-3-carboxylic acid] | 0.0039 µM | 0.003 µM |  |
| CCN1CCN(c2nc3ccc(-n4cc(C(=O)O)c(=O)cc4-c4ccc(N5CCCC5)cc4)cc3s2)CC1 [Example 3-9, 1-(2-(4-ethylpiperazin-1-yl)benzo[d]thiazol-6-yl)-4-oxo-6-(4-(pyrrolidin-1-yl)phenyl)-1,4-dihydropyridine-3-carboxylic acid] | 0.0035 µM | 0.006 µM |  |
| O=C(O)c1cn(-c2ccc3nc(NCc4ccccn4)sc3c2)c(-c2ccc(N3CCCC3)cc2)cc1=O [Example 3-12, 4-oxo-1-(2-((pyridin-2-ylmethyl)amino)benzo[d]thiazol-6-yl)-6-(4-(pyrrolidin-1-yl)phenyl)-1,4-dihydropyridine-3-carboxylic acid] | 0.0029 µM | 0.0024 µM |  |
| COCCN1CCN(c2nc3ccc(-n4cc(C(=O)O)c(=O)cc4-c4ccc(N5CCCC5)cc4)cc3s2)CC1 [Example 3-14, 1-(2-(4-(2-methoxyethyl)piperazin-1-yl)benzo[d]thiazol-6-yl)-4-oxo-6-(4-(pyrrolidin-1-yl)phenyl)-1,4-dihydropyridine-3-carboxylic acid] |  |  | IC50 (HBV (genotype AeUS); read-out: IC50 HBV-DNA): 0.024 µM; IC50 (HBV (genotype AeUS); read-out: IC50 HBsAg): 0.089 µM |
| COc1cc(-c2cc(=O)c(C(=O)O)cn2-c2ccc3nc(C)sc3c2)ccc1N1CCCC1 [Example 4-1, 6-(3-methoxy-4-(pyrrolidin-1-yl)phenyl-1)-(2-methylbenzo[d]thiazol-6-yl)-4-oxo-1,4-dihydropyridine-3-carboxylic acid] |  |  | IC50 (HBV; read-out: IC50 HBV-DNA): 0.018 µM; IC50 (HBV; read-out: IC50 HBsAg): 0.018 µM |
| COc1cc(-c2cc(=O)c(C(=O)O)cn2-c2ccc3nc(N4CCOCC4)sc3c2)ccc1N1CCCC1 [Example 4-2, 6-(3-methoxy-4-(pyrrolidin-1-yl)phenyl)-1-(2-morpholinobenzo[d]thiazol-6-yl)-4-oxo-1,4-dihydropyridine-3-carboxylic acid] | 0.0109 µM | 0.0053 µM |  |
| O=C(O)c1cn(-c2ccc3nc(N4CCOCC4)sc3c2)c(-c2ccc(N3CCCC3)c(Br)c2)cc1=O [Example 5-2, 6-(3-bromo-4-(pyrrolidin-1-yl)phenyl)-1-(2-morpholinobenzo[d]thiazol-6-yl)-4-oxo-1,4-dihydropyridine-3-carboxylic acid] | 0.0012 µM | 0.0016 µM |  |
| COCCN(CCOC)c1nc2ccc(-n3cc(C(=O)O)c(=O)cc3-c3ccc(N4CCCC4)c(Br)c3)cc2s1 [Example 5-3, 1-(2-(bis(2-methoxyethyl)amino)benzo[d]thiazol-6-yl)-6-(3-bromo-4-(pyrrolidin-1-yl)phenyl)-4-oxo-1,4-dihydropyridine-3-carboxylic acid] |  |  | IC50 (HBV (genotype AeUS); read-out: IC50 HBV-DNA): 0.025 µM; IC50 (HBV (genotype AeUS); read-out: IC50 HBsAg): 0.052 µM |
| COC[C@H]1CCCN1c1nc2ccc(-n3cc(C(=O)O)c(=O)cc3-c3ccc(N4CCCC4)c(Br)c3)cc2s1 [Example 5-6, (R)-6-(3-bromo-4-(pyrrolidin-1-yl)phenyl)-1-(2-(2-(methoxymethyl)pyrrolidin-1-yl)benzo[d]thiazol-6-yl)-4-oxo-1,4-dihydropyridine-3-carboxylic acid] |  |  | IC50 (HBV (genotype AeUS); read-out: IC50 HBV-DNA): 0.041 µM; IC50 (HBV (genotype AeUS); read-out: IC50 HBsAg): 0.062 µM |
| O=C(O)c1cn(-c2ccc3nc(N4CCOCC4)sc3c2)c(-c2ccc(N3CCCC3)c(Cl)c2)cc1=O [Example 6-1, 6-(3-chloro-4-(pyrrolidin-1-yl)phenyl)-1-(2-morpholinebenzo[d]thiazol-6-yl)-4-oxo-1,4-dihydropyridine-3-carboxylic acid] |  |  | IC50 (HBV; read-out: IC50 HBV-DNA): 0.01 µM; IC50 (HBV; read-out: IC50 HBsAg): 0.0038 µM |
| Cc1nc2ccc(-n3cc(C(=O)O)c(=O)cc3-c3ccc(N4CC[C@@H](OCc5ccc(F)cc5)C4)cc3)cc2s1 [Example 8, (R)-6-(4-(3-((4-Fluorobenzyl)oxy)pyrrolidin-1-yl)phenyl)-1-(2-methylbenzo[d]thiazol-6-yl)-4-oxo-1,4-dihydropyridine-3-carboxylic acid] | 0.02 µM | 0.019 µM |  |
| O=C(O)c1cn(-c2ccc3ncsc3c2)c(-c2ccc(-c3ccc(F)cc3)s2)cc1=O [Example 14, 1-(Benzo[d]thiazol-6-yl)-6-(5-(4-fluorophenyl)thiophen-2-yl)-4-oxo-1,4-dihydropyridine-3-carboxylic acid] | 0.1 µM | 0.091 µM |  |
